Earlier results as cited in patent US20090005322A1, “Physiologically- Active Composition Based on Collagen” (priority 2004, published 2009).

System: human peripheral polymorphonuclear leucocytes

## C[C@@H]1O[C@@H](O[C@@H]2[C@@H](O)[C@H](OCCc3ccc(O)c(O)c3)O[C@H](CO)[C@H]2OC(=O)/C=C/c2ccc(O)c(O)c2)[C@H](O)[C@H](O)[C@H]1O [Acteoside, acteoside]
  formation of eicosatetraenoic acid derivatives (5-HET): inhibits
  formation of leucotriene B4: inhibits
